Patent US8088818B2, “Catechol-based derivatives for treating or preventing diabetics” (National Taiwan University, priority 2006, dated 2012)

Legend:
Type 1 diabetic rats = test: Blood sugar lowering in streptozotocin-induced type 1 diabetic rats after oral administration; format: in vivo, rat; conditions: for % decrease in plasma glucose: type 1 diabetic rats, 90 min
Method: (b) Streptozocin-induced type 1 diabetic rats: the male Wistar rats of 8 weeks age undergo a starvation for 72 hours, followed by anaesthetizing the rats by injecting with 30 mg/kg pentobarbital into the abdominal cavity. After the rats fall asleep, 60 mg/kg streptozotocin (STZ) is administrated by an intravenous injection. After a week, phlebotomize and obtain a value of blood sugar by a glucose kit, wherein the glucose kit is further analyzed by Biosystem S.A., Barcelona Spain, BST330. While the value of the blood sugar is greater than 400 mg/dL and the typical three symptoms, eating more, drink more, micturition occur, it is deemed as Type 1 Diabetic rats.
(d) The administration: Dissolve the medicine equivalently in deionized water, and then administrate the mentioned solution into the normal and diabetic rats by an orally perfusion. Keep with the desired concentration of the perfusion amount by taking suitable amount of the medicine solution according to the weight of the different animal.
The rats to be experimented should undergo a starvation for 8-12 hours overnight. Next day, the rats are anesthetized with 30 mg/kg pentobarbital by injecting into the abdominal cavity. After the rats fall asleep, fix the rats on the board with the rubber band. Open the groin, find the veins, bleed 0.1 ml blood from an empty stomach, and then feed the medicine into the body of the rats by taking orally. After 90 minutes, bleed and perform a centrifugation (13,000 rpm, 5 minutes) to separate the serum and the plasma. Take the 10 μl supernatant of the serum and add 1 ml reagent of the glucose kit thereinto by gently mixing. React for 5 minutes at 37 °C, followed by detecting the value of the blood sugar by means of BST330 based on the different absorption level. […] The value of the blood sugar (mg/dL) is calculated by comparing the level of redness with contrasting the standard curve.
(The value of blood sugar at postadministration)−(The value of blood sugar at preadministration)/(The value of blood sugar at preadministration)×100%
The results of the experiments are presented in the average value±the standard error (mean±SE), and the variations therebetween are evaluated according to the Student's t-test, while the variations thereamong are evaluated according to one-way ANOVA and Bonferroni's t-test, wherein P<0.05 is deemed to have apparent differences.

coronary artery = test: Flow rate of the coronary artery in the isolated perfused rat heart (Langendorff); conditions: for coronary flow: isolated Wistar rat heart
Method: Each of the male Wistar rats weighs about 200-250 grams, and is anesthetized with 25 mg/kg pentobarbital and 16 mg/kg heparin by injecting into the abdominal cavity. After falling asleep, separate the cervical vertebra and immediately take the heart out hanging on the constant pouring pressure circulation instrument (Langendorff, AD Instruments Pty Ltd, ML870B2) and fill a 37[…] pouring solution of 95% of oxygen and 5% of carbon dioxide with the artery (119.7 mM NaCl, 23.8 mM NaHCO3, 5.6 mM glucose, 1.2 mM CaCl2, 1.1 mM MgCl2, 0.3 mM NaH2PO4, and 5.0 mM KCl), which washes the heart and clean out the blood water by pouring in a reverse direction. The rate of the reverse pouring is 10 ml/min, followed by maintaining the pouring pressure of the coronary artery at 80 mmHg. After balancing for thirty minutes, measure the rate of the pouring solution flowing in the heart, and observe the change of the rate the pouring solution flowing in the heart while the testing drug is added.

type I diabetic rats = test: Safety evaluation: survival rate of type I diabetic rats; format: in vivo, rat; conditions: for Survival rate (%) of rats: p.o., after seven days
Method: Table 13 is a safety evaluation, wherein the type I diabetic rats are respectively orally administrated with the compound 370G at the dosage of 10 mg/kg and 30 mg/kg.

rats = test: Intravenous glucose tolerance test (IGTT); format: in vivo, rat; conditions: oral 0.5 mg/ml/kg; 1000 mg/kg glucose intravenous, 30 minutes

## O=C(/C=C/c1ccc(O)c(O)c1)NCCc1ccccc1 [370G (45)]
Type 1 diabetic rats; 0.1 mg/kg oral
  % decrease in plasma glucose: 11.8 ± 5.5 %
Type 1 diabetic rats; 0.5 mg/kg oral
  % decrease in plasma glucose: 13.8 ± 4.3 %
Type 1 diabetic rats; 1.0 mg/kg oral
  % decrease in plasma glucose: 11.6 ± 1.7 %
Type 1 diabetic rats; type I diabetic rat
  effect for reducing the blood sugar, compared among rat models: weakest effect
Coronary artery; Wistar rats, Tables 15 and 16
  effect on coronary flow rate (in words): capable of increasing the coronary flow rate
Coronary artery; conc. 0 (baseline)
  coronary flow: 11.8 ± 1.0 mL/min
Coronary artery; conc. 0.1 (unit printed .[…]M)
  coronary flow: 12.4 ± 1.1 mL/min
Coronary artery; conc. 0.3 (unit printed .[…]M)
  coronary flow: 13.2 ± 1.4 mL/min
Coronary artery; conc. 1 (unit printed .[…]M)
  coronary flow: 15.6 ± 1.2 mL/min
Coronary artery; conc. 3 (unit printed .[…]M)
  coronary flow: 17.4 ± 1.3 mL/min
Coronary artery; conc. 10 (unit printed .[…]M)
  coronary flow: 19.5 ± 0.7 mL/min
Type I diabetic rats; 10 mg/kg
  Survival rate (%) of rats: 100%
Type I diabetic rats; 30 mg/kg
  Survival rate (%) of rats: 100%
Type I diabetic rats; oral 10 mg/kg and 30 mg/kg, seven days
  effect on survival rate (in words): do not affect the survival rate
rats
  glucose availability in IGTT versus control: raised
